Values of other authors in patent US10300299B2, “Advanced methods and systems for treating cell proliferation disorders” (priority 2008, dated 2019).

Columns and labels:
[1] = system: rapidly dividing tissue; details: in vivo
[2] = not given; remark: listed apart in the source
[3] = not given; remark: listed apart in the source

Oc1cccc(-c2c3nc(c(-c4cccc(O)c4)c4ccc([nH]4)c(-c4cccc(O)c4)c4nc(c(-c5cccc(O)c5)c5ccc2[nH]5)CC4)C=C3)c1 [Foscan, Tetra (m-hydroxyphenyl) chlorin]
duration of skin photosensitivity: approximately 2 weeks | Length of photosensitization (Table 3, known photosensitizers): 2 weeks

C/C1=C2/[N-][C@H]([C@H](CC(N)=O)[C@@]2(C)CCC(=O)NC[C@@H](C)OP(=O)([O-])O[C@H]2[C@@H](O)[C@@H](n3cnc4cc(C)c(C)cc43)O[C@@H]2CO)[C@]2(C)N=C(/C(C)=C3N=C(/C=C4N=C1[C@@H](CCC(N)=O)C\4(C)C)[C@@H](CCC(N)=O)[C@]\3(C)CC(N)=O)[C@@H](CCC(N)=O)[C@]2(C)CC(N)=O.[CH3-].[Co+3] [methylcobalamin]
uptake in rapidly dividing tissue [1]: increased uptake

Cobalt-57-cyanocobalamin
uptake in rapidly dividing tissue [1]: increased uptake

Vitamin B12
water solubility [2]: water soluble | excretion ([3]; in excess): excreted by gloinerular filtration | toxicity ([3]; in vivo): no known toxicity
